This is an account of results in ChEMBL document CHEMBL3596107, “Design, synthesis and evaluation of a series of acyclic fleximer nucleoside analogues with anti-coronavirus activity” (Bioorg Med Chem Lett, 2015).

One may read the EC50 as the concentration that produces a half-maximal response. The term CC50 denotes the concentration that lowers cell viability or growth by half.

The nature of data set [1]: Antiviral activity against Human coronavirus NL63 infected in African green monkey Vero118 cells assessed as inhibition of virus-induced cytopathic effect after 5 days by microscopic analysis. The format is functional. As to conditions: Human coronavirus NL63, 120 h; call rule not given here. For orientation: Cytopathic effects are the visible damage that an infection or toxin causes in cultured cells.

Data set [2] is described as follows: Cytotoxicity against mock-infected African green monkey Vero118 cells assessed as inhibition of cell survival after 5 days by microscopic analysis. The format is cell-based. As to conditions: chlorocebus sabaeus; for CC50: 120 h.
For another data set, the system named is SARS-CoV. Description: Antiviral activity against SARS-CoV assessed as inhibition of viral replication. The format is functional, Severe acute respiratory syndrome-related coronavirus.
Data set [3] in a line: Cytotoxicity against mock-infected human HuH7 cells assessed as inhibition of cell survival after 2 days by CellTiter 96 AQueous Non-Radioactive Cell Proliferation Assay. The format is cell-based. Conditions: huh-7, 48 h.
Data set [4] has as its system Middle East respiratory syndrome-related coronavirus. As to the kind of experiment: Antiviral activity against MERS-CoV EMC/2012 infected in African green monkey Vero cells assessed as inhibition of virus-induced cytopathic effect after 3 days by CellTiter 96 AQueous Non-Radioactive Cell Proliferation Assay. The format is functional, cell-based. Conditions: EMC/2012, Vero, 72 h.

Data set [5] in a line: Antiviral activity against SARS-CoV Frankfurt 1 infected in African green monkey Vero E6 cells assessed as inhibition of virus-induced cytopathic effect after 3 days by CellTiter 96 AQueous Non-Radioactive Cell Proliferation Assay. The format is functional, cell-based, SARS coronavirus Frankfurt 1.
For data set [6], the system named is Middle East respiratory syndrome-related coronavirus. Description: Antiviral activity against MERS-CoV EMC/2012 infected in human HuH7 cells assessed as inhibition of virus-induced cytopathic effect after 2 days by CellTiter 96 AQueous Non-Radioactive Cell Proliferation Assay. It counts as functional, cell-based. As to conditions: EMC/2012, Huh-7, 48 h.
Another data set relates to Vero. Description: Cytotoxicity against mock-infected African green monkey Vero cells assessed as inhibition of cell survival after 3 days by CellTiter 96 AQueous Non-Radioactive Cell Proliferation Assay. The format is cell-based. As to conditions: chlorocebus sabaeus, 72 h.
Data set [7] in a line: Cytotoxicity against mock-infected African green monkey Vero E6 cells assessed as inhibition of cell survival after 3 days by CellTiter 96 AQueous Non-Radioactive Cell Proliferation Assay. It counts as cell-based. Conditions: chlorocebus sabaeus, vero c1008, 72 h.

For `Nc1ncc(-c2cn(COCCO)cn2)c(O)n1`, in data set [1], the EC50 was greater than 200 µM. The CC50 in data set [2] is greater than 200 µM.
As to `OCCOCn1cnc(-c2cnc(O)nc2O)c1`, in data set [1], the EC50 came to 92 µM. For the same compound, in data set [2], the CC50 was greater than 200 µM.
Regarding `NC(=O)c1ncn([C@@H]2O[C@H](CO)[C@@H](O)[C@H]2O)n1` [RIBAVIRIN], the INH in the data set on SARS-CoV came out at 500 µg/mL.
For `COc1nc(N)ncc1-c1cn(COCCO)cn1`, the CC50 in data set [3] was 149 µM; in [2], 120 µM; with Vero, 71 µM; in data set [7] it was 138 µM. The EC50 in data set [4] was 23 µM; in [1] it was 8.8 µM; in [5] (vero e6), “Not Active”; in data set [6] it was 27 µM.
Regarding `Nc1nc2c(ncn2COCCO)c(=O)[nH]1` [ACYCLOVIR], the half-maximal cytotoxic concentration (CC50) (in data set [3]; in the data set on Vero; in [7]) was greater than 1000 µM in each case. Also, the half-maximal effective concentration (EC50) in data set [4] is greater than 1000 µM; in data set [1], greater than 100 µM; in [5] (Severe acute respiratory syndrome-related coronavirus, Vero C1008, 72 h, read-out: EC50), greater than 1000 µM; in data set [6] it was greater than 1000 µM. The CC50 at 120 h in [2] (mock-infected Vero118 cells) was greater than 100 µM.
